According to ChEMBL document CHEMBL1275395, “Endoperoxide carbonyl falcipain 2/3 inhibitor hybrids: toward combination chemotherapy of malaria through a single chemical entity” (J Med Chem, 2010):
*1 amine or outer side, *2 acyl side, *3 side chain or, on linkers, in order; H or OH if unused. Where a SMILES comes first, the peptide text is derived from it. [ ]: non-standard residue; d: D form. The star is where a group is joined. hPhe = N[C@@H](CCc1ccccc1)C(=O)O; Morpholide = C1CN(*)CCO1; Cbz = O=C(OCc1ccccc1)*; CO = O=C([*:1])[*:2]

How the values were obtained:
[1] = test system: Plasmodium falciparum; assay: Antimalarial activity against Plasmodium falciparum 3D7 infected in human erythrocytes after 4 hrs; format: functional, organism-based; details: 3D7, 4 h
[2] = Inhibition of Plasmodium falciparum recombinant falcipain-2
[3] = Inhibition of Plasmodium falciparum recombinant falcipain-3

Row | SMILES | IC50 [1] [nM] | IC50 [2] [nM] | IC50 [3] [nM]
1 | COCC(=O)[C@H](Cc1ccccc1)NC(=O)[C@H](CC(C)C)NC(=O)OCc1ccccc1 | > 10000 | 1970 | 8610
2 | CCOCC(=O)[C@H](Cc1ccccc1)NC(=O)[C@H](CC(C)C)NC(=O)OCc1ccccc1 | > 10000 | 1960 | 21600
3 | CC(C)C[C@H](NC(=O)OCc1ccccc1)C(=O)N[C@@H](CCc1ccccc1)C(=O)COc1ccccc1 | 310 | 438 | 222
4 | CC(C)C[C@H](NC(=O)OCc1ccccc1)C(=O)N[C@@H](CCc1ccccc1)[C@H]1OOC2(O1)C1CC3CC(C1)CC2C3 (stereo partly drawn) | 55.5 | 425 | 947
5 | COC[C@@]1([C@H](CCc2ccccc2)NC(=O)[C@H](CC(C)C)NC(=O)OCc2ccccc2)OOC2(O1)C1CC3CC(C1)CC2C3 (stereo partly drawn) | 582 | < 11500 | < 19800
6 | COC[C@@]1([C@@H](NC(=O)[C@H](CC(C)C)NC(=O)OCc2ccccc2)c2ccccc2)OOC2(O1)C1CC3CC(C1)CC2C3 (stereo partly drawn) | 2560 | 1200 | 44200
7 | CCOC[C@@]1([C@H](CCc2ccccc2)NC(=O)[C@H](CC(C)C)NC(=O)OCc2ccccc2)OOC2(O1)C1CC3CC(C1)CC2C3 (stereo partly drawn) | 572 | < 8670 | < 24200
8 | CCOC[C@@]1([C@@H](NC(=O)[C@H](CC(C)C)NC(=O)OCc2ccccc2)c2ccccc2)OOC2(O1)C1CC3CC(C1)CC2C3 (stereo partly drawn) |  | < 8580 | > 25000
9 | CC(C)C[C@@H](C(=O)N[C@@H](CCc1ccccc1)[C@H]1OOC2(O1)C1CC3CC(C1)CC2C3)N1CCOCC1 (stereo partly drawn) | 35.3 | 510 | 332

More lines, now with the values ahead:

Row | IC50 [1] [nM] | IC50 [2] [nM] | IC50 [3] [nM] | SMILES
10 | > 10000 | 7150 | 5600 | COCC(=O)[C@H](CCc1ccccc1)NC(=O)[C@H](CC(C)C)NC(=O)OCc1ccccc1
11 | > 10000 | 2050 | 853 | CCOCC(=O)[C@H](CCc1ccccc1)NC(=O)[C@H](CC(C)C)NC(=O)OCc1ccccc1
12 | 27.1 | 1.4 | 199 | CC(C)C[C@H](NC(=O)OCc1ccccc1)C(=O)N[C@H](C=O)CCc1ccccc1 (Cbz-Leu-[hPhe]-aldehyde)
13 | 9.3 | 16.3 | 215 | CC(C)C[C@H](NC(=O)N1CCOCC1)C(=O)N[C@H](C=O)CCc1ccccc1 ({Morpholide-CO}-Leu-[hPhe]-aldehyde)
